Source: ChEMBL document CHEMBL4715893, “Inhibitory effects of sesquiterpene lactones from the Indonesian marine sponge Lamellodysidea cf. herbacea on bone morphogenetic protein-induced osteoblastic differentiation” (Bioorg Med Chem Lett, 2021)
pIC50: −log10 of the molar value.

Experiments:
[1] = Inhibition of BMP-induced mouse C2C12 cells osteoblastic differentiation assessed as reduction in alkaline phosphatase activity; format: functional, cell-based
C2C12 = assay: Cytotoxicity against mouse C2C12 cells assessed as reduction in cell viability by MTT assay; format: cell-based

pIC50 [1]	SMILES	pIC50 (C2C12)
4.70	COC1C=C(CC[C@]2(C)C(C)=CCC[C@H]2C)C(=O)O1 (stereo partly specified)	< 4.42
4.29	C=C1C[C@@H]2C[C@@](C)(CCC3=CC(=O)O[C@@]32OC)[C@H]1C	< 4.12
5.32	CC1=CCC[C@@H](C)[C@]1(C)CCC1=CC(=O)OC1O (stereo partly specified)	< 4.40
